Legend:
[1] = target: T1, E. coli SSADH (gabD gene product) (Escherichia coli, UniProt P25526); test: fluorometric NADPH formation (ex […] nm, em […] nm); type: biochemical; conditions: 1.1 mM NADP+, 100 mM Na phosphate pH 8.0, 30 °C; varied substrate SSA (range printed as 0–400 mM), substrate not named beside Km
T1 construct: expressed in E. coli BL21(DE3) pLysS; homotetramer, 481 residues per monomer in crystal; single amino acid change versus database gabD, not specified

[2] = target: Escherichia coli succinic semialdehyde dehydrogenase (gabD gene product, NADP+-dependent) (E. coli) (UniProt P25526); test: SEC; analytical size-exclusion chromatography of purified recombinant SSADH; data not shown

Compound | Km [1] [µM] | stoichiometry N [2]
O=CCCC(=O)O [SSA, succinic semialdehyde] | 16.9 ± 2.2 | 
Escherichia coli succinic semialdehyde dehydrogenase (gabD gene product, NADP+-dependent) (from UniProt P25526 1-482) (enzyme) |  | 4

Reference: paper PMC2823781, “The X-Ray Crystal Structure of Escherichia coli Succinic Semialdehyde Dehydrogenase; Structural Insights into NADP^+/Enzyme Interactions” (PLoS ONE, 2010)
